Key:
[1] = target: elastase in CF patient sputum (Homo sapiens (Human), UniProt P08246); test: Elastase inhibition assay in CF patient sputum; type: biochemical; settings: for IC50 / LipE: CF sputum; for inhibitory activity in patient sputum versus purified HNE (in words): sputum samples of CF and COPD patients
Experimental: Serially diluted compounds in DMSO were dispensed into a 384-well black opaque plate by Echo dispenser. 0.1 μg/mL human neutrophil elastase (EPC, Catalog# SE563, Owensville, Ms.) or human sputum diluted with assay buffer (100 mM HEPES, 500 mM NaCl, 0.02% Tween 20) was added into the 384-well plate, and was incubated with different compounds at different concentrations for 30 minutes at room temperature. The final concentration of DMSO in the reaction was 0.1%. Elastase substrate MeOSuc-AAPV-AMC (Bachem, Catalog #I-1270, Torrance, CA) of 100 μM final concentration was then added into the reaction system just before enzyme kinetics were read on PheraSTAR plate reader at excitation of 380 nm and emission of 460 nm with a 3-minutes interval for 30 minutes in total. Slope of fluorescence intensity vs. time representing the Vmax of enzyme activity was calculated with MARS software. % relative inhibition was calculated as: […]
IC50 was calculated based on the % relative inhibition curve using log(agonist) vs. response (three parameters) method with Prism software. All experiments were performed in triplicate for at least three independent times.
Human sputum was purchased from Discovery Life Sciences (Los Osos, CA). Human sputum was diluted 1:10 in volume with assay buffer (100 mM HEPES, 500 mM NaCl, 0.02% Tween 20) followed by vigorous vortexing. The 1:10 diluted human sputum was further diluted into 1:30, 1:90, 1:270, 1:810, and 1:2430. The elastase concentration was determined by elastase inhibition assay as described above. Specifically, a series of standards of human neutrophil elastase (starting at 2 μg/mL and further diluted 1:2 in volume) were prepared in the assay buffer. The samples and standards were plated in a 384-well black solid bottom plate; the substrate MeOSuc-AAPV-AMC of 100 μM final concentration was then added into the reaction system just before enzyme kinetics were read on PheraSTAR plate reader as mentioned above. The slope of enzymatic kinetic reading was calculated by MARS software. The elastase levels of the human sputum were calculated based on the standard curve.

in vitro = settings: human
Experimental: Digoxin, fenoterol, and propranol were used as standards respectively. Transport Method:
The transport buffer used in the study was HBSS with 10 mM HEPES at pH 7.40±0.05. Compounds were tested at 2 μM bi-directionally in duplicates. Digoxin was tested at […] bi-directionally in a duplicate, while fenoterol and propranolol were tested at 2 μM in A(apical) to B (basolateral) direction in duplicates. The final DMSO concentration was adjusted to less than 1%. The plate was incubated for 2 hours in a CO2 incubator at 37±1° C., with 5% CO2 at saturated humidity without shaking. All samples, after mixing with acetonitrile containing internal standard, were centrifuged at 4000 rpm for 20 min. Subsequently,100 μL supernatant solution was diluted with 100 μL distilled water for LC/MS/MS analysis. Concentrations of test and control compounds in starting solution, donor solution, and receiver solution were quantified by LC/MS/MS methodologies, using peak area ratio of analyte/internal standard. After transport assay, lucifer yellow rejection assay was applied to determine the Caco-2 cell monolayer integrity.
Data analysis: The apparent permeability coefficient Papp (cm/s) was calculated using the equation:
The efflux ratio was calculated using the equation: Efflux ratio=Papp(BA)/Papp(AB)
Percent recovery was calculated using the equation: % Recovery=100×[(Vr·Cr)+(Vd·Cd)]/(Vd·C0) Where Vd is the volume in the donor chambers (0.075 mL on the apical side, 0.25 mL on the basolateral side); Cd and Cr are the final concentrations of transport compound in donor and receiver chambers, respectively.

Plasma Stability Assay = type: in vitro ADME, mouse; settings: for % Remaining (mean): CD-1 Mouse Plasma; for portion intact in CD-1 mouse plasma: over 2 hours; for CD-1 Mouse Plasma % Remaining @ 2 hr: summary table
Experimental: Propantheline was used as the reference compound in this assay; all stock solutions were stored at −40° C. before use. • 2) Test system: CD-1 Mouse Plasma from a minimum of 20 male individuals were obtained from BioreclamationlVT (Catalog #: […]2-M; Batch #: MSE244515). EDTA-K2 was used as the anticoagulant. Procedure:
The frozen plasma was thawed in a water bath at 37° C. prior to the experiments. The plasma was centrifuged at 4000 rpm for 5 min and the clots were removed if necessary.
The pH was adjusted to 7.4±0.1 as necessary. An intermediate solution (1 mM) was prepared and a 100 μM dosing solution was prepared by diluting 10 μL of the intermediate solution with 90 μL 45% MeOH/H2O. Duplicate of test samples were made by mixing 98 μL of blank plasma with 2 μL of dosing solution (100 μM) to achieve the final concentration of 2 μM. Samples were incubated at 37° C. At each time point (0, 10, 30, 60, and 120 min), 400 μL of stop solution (consisting of 200 ng/mL tolbutamide and 20 ng/mL buspirone in 50% MeOH/CH3CN) was added to precipitate protein under thorough mixing. The sample plates were then centrifuged at 4,000 rpm for 10 min. An aliquot of supernatant (100 μL) was transferred from each well and mixed with 200 of μL ultrapure water. The samples were shaken at 800 rpm for about 10 min before LC-MS/MS analysis.
Data analysis: The % remaining of test compound after incubation in plasma was calculated using following equation: Remaining=100×(PAR at Tn/PAR at T0) where PAR is the peak area ratio of analyte versus internal standard (IS) and The appointed incubation time points are T0 (0 min), Tn (n=0, 10, 30, 60, 120 min).
LC-MS/MS condition: Each compound was analyzed by LC/MS using an ACE 5-phenyl 50×2.1 mm column (Part No. ACE-125-0502) with 0.1% formic acid in water and 0.1% formic acid in acetonitrile as the mobile phases. Tobultamide was used as the internal standard. Data collected were processed by Analyst 1.6.2 software and MultiQuant 3.0.2 software.

Chain of elastase in CF patient sputum (P08246 30-267): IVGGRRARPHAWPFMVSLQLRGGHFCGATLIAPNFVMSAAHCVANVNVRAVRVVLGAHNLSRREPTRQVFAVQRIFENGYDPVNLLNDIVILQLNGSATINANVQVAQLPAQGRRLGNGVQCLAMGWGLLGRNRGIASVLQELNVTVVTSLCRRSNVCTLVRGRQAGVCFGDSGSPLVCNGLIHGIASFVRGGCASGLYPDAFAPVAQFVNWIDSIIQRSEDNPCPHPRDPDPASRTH

Structure (SMILES)	IC50 [1]	LipE [1]	inhibitory activity in patient sputum versus purified HNE (in words) [1]	Papp A→B at 120 min, 2 μM (in vitro; Caco-2, pH 7.4)	Papp A→B at 2 h, 2 μM (in vitro; Caco-2, pH 7.4)	Papp B→A at 120 min, 2 μM (in vitro; Caco-2, pH 7.4)	Papp B→A at 2 h, 2 μM (in vitro; Caco-2, pH 7.4)	efflux ratio at 2 h, 2 μM (in vitro; Caco-2, pH 7.4)	recovery at 2 h, 2 μM (in vitro; Caco-2, pH 7.4, Mean Recovery % A to B)	recovery at 2 h, 2 μM (in vitro; Caco-2, pH 7.4, Mean Recovery % B to A)	% Remaining (mean) (Plasma Stability Assay; 0 min, 2 μM, 37° C.)	% Remaining (mean) (Plasma Stability Assay; 10 min)	% Remaining (mean) (Plasma Stability Assay; 30 min)	% Remaining (mean) (Plasma Stability Assay; 60 min)	% Remaining (mean) (Plasma Stability Assay; 120 min)	portion intact in CD-1 mouse plasma (Plasma Stability Assay)	CD-1 Mouse Plasma % Remaining @ 2 hr (Plasma Stability Assay)
CC(C)[C@H](NC(=O)[C@@H]1CCCN1C(=O)[C@@H](NC(=O)c1ccc(C(=O)NS(=O)(=O)c2ccc(Cl)cc2)cc1)C(C)C)B(O)O [Compound 51, (1-((S)-1-((4-(((4-chlorophenyl)sulfonyl)carbamoyl)benzoyl)-L-valyl)pyrrolidine-2-carboxamido)-2-methylpropyl)boronic acid]	0.096 ± 0.002 nM	6.83	retained much of their inhibitory activities	< 0.16 ×10⁻⁶ cm/s	< 0.08 ×10⁻⁶ cm/s	0.61 ×10⁻⁶ cm/s	< 0.12 ×10⁻⁶ cm/s	> 3.91	< 88.2%	99.1%	100.0%	90.0%	79.4%	84.1%	90.3%	90%	90.3%
CC(C)[C@H](NC(=O)[C@@H]1CCCN1C(=O)[C@@H](NC(=O)c1ccc(C(=O)NCC(=O)O)cc1)C(C)C)B(O)O [Compound 52, (4-(((2S)-1-((2S)-2-((1-borono-2-methylpropyl)carbamoyl)pyrrolidin-1-yl)-3-methyl-1-oxobutan-2-yl)carbamoyl)benzoyl)glycine]	0.043 ± 0.002 nM	9.62	retained much of their inhibitory activities								100.0%	116.1%	104.8%	96.4%	79.2%	79%	79.2%

Source: patent US12415819B2, “Cu- and Ni-catalyzed decarboxylative borylation reactions” (The Scripps Research Institute, priority 2017, dated 2025)
